Eight compounds from ChEMBL document CHEMBL1201862, “PubChem BioAssay data set” (2004) can be followed below.

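Protocol summary: plate cells (96-well), add compound at 5 concentrations, incubate 48 h, interpolate endpoints linearly. GI50: concentration for 50% inhibition of growth.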 Calls of active or inactive are those of the source. Rule as the data show it: active = GI50 up to about 1.1 µM and inactive = higher.

Among the test systems are KM12; 786-0; KM-20L2; NCI-H460; SNB-75; LOX IMVI; UACC-62; SF-539; CCRF-CEM; HL-60; SF-268; EKVX; HOP-62; HOP-92; COLO 205; UACC-257; OVCAR-3; RXF 393.
Holding throughout (assay): DTP human tumour cell line panel, 48 h

By GI50 is commonly meant the concentration that inhibits growth by half. Regarding `Cc1cccc(C2=C/C(=C(\SS/C(C(=O)c3ccc(OCC(=O)O)c(Cl)c3Cl)=C3\C=C(c4cccc(C)c4)SS3)C(=O)c3ccc(OCC(=O)O)c(Cl)c3Cl)SS2)c1`, the GI50 in the test with KM12 was 23.3 µM (inactive); in the test on 786-0, 20 µM (inactive); in the test with KM-20L2 it was 47.1 µM (inactive); in the test with NCI-H460, 27.2 µM (inactive); with SNB-75, 18.7 µM (inactive); with LOX IMVI it was 4.69 µM (inactive). Besides, the GI50 in the test with UACC-62 was 13.8 µM (inactive); in the test with SF-539 it was 12.4 µM (inactive); in the test on CCRF-CEM, 4.71 µM (inactive); in the test on HL-60 it was 1.85 µM (inactive); in the test with SF-268 it was 10.8 µM (inactive); with EKVX, 56.5 µM (inactive). In addition, the GI50 is 47.1 µM (inactive) with HOP-62; 5.45 µM (inactive) with HOP-92; 7.94 µM (inactive) with COLO 205; 34.4 µM (inactive) with UACC-257; 14.2 µM (inactive) with OVCAR-3.

Turning to `O=C(Nc1cccc(O)c1)C(=O)C(C(=O)c1ccc(Cl)c(Cl)c1)C1OC(=O)c2ccccc21` (configuration not stated), the GI50 is 19.5 µM (inactive) in the test with KM12; 13.6 µM (inactive) with 786-0; 20.9 µM (inactive) with RXF 393; 18.8 µM (inactive) with KM-20L2; 13.2 µM (inactive) with NCI-H460; 17.8 µM (inactive) in the test with SNB-75. Moreover, the GI50 in the test on LOX IMVI was 17.3 µM (inactive); with UACC-62 it was 17.5 µM (inactive); in the test on CCRF-CEM it was 12.5 µM (inactive); with HL-60, 12.9 µM (inactive); in the test on SF-268, 10.4 µM (inactive); in the test on EKVX, 18.5 µM (inactive). For the same compound, the GI50 in the test on HOP-92 is 22.5 µM (inactive); in the test on COLO 205, 15.9 µM (inactive); in the test on UACC-257, 20.6 µM (inactive).

Take `Cc1ccc(NC(=O)CC(=O)n2nc(-c3ccccc3)c(/N=N/c3ccc(Cl)cc3)c2-c2ccccc2)cc1`: the GI50 with KM12 is 36.5 µM (inactive); in the test on 786-0 it was 21.1 µM (inactive); in the test with KM-20L2 it was 49.9 µM (inactive); in the test on NCI-H460, 40.3 µM (inactive); with SNB-75, 22.6 µM (inactive); with LOX IMVI, 15.6 µM (inactive). In addition, the GI50 was > 100 µM (inactive) in the test on UACC-62; 28.8 µM (inactive) in the test with SF-539; 24.4 µM (inactive) with CCRF-CEM; 0.221 µM (active) in the test with HL-60; > 100 µM (inactive) in the test on SF-268; > 100 µM (inactive) in the test with EKVX. Also, the GI50 in the test with HOP-62 was 50.6 µM (inactive); in the test with HOP-92, 39.7 µM (inactive); with COLO 205 it was 35 µM (inactive); in the test with UACC-257, 33.8 µM (inactive); in the test with OVCAR-3, 42.6 µM (inactive).

For the compound `Cc1cccc(C)c1NC(=O)CCCC(=O)C(C#N)c1ccc(Cl)cc1` (configuration not stated), the GI50 is > 100 µM (inactive) in the test with KM12; > 100 µM (inactive) in the test with 786-0; > 100 µM (inactive) with KM-20L2; > 100 µM (inactive) with NCI-H460; 35.6 µM (inactive) in the test on SNB-75; > 100 µM (inactive) with LOX IMVI. For the same compound, the GI50 in the test with UACC-62, in the test with SF-539, in the test on CCRF-CEM, in the test on HL-60, in the test with SF-268 and in the test on EKVX was > 100 µM (inactive) throughout. Also, the GI50 with HOP-62, with HOP-92, with COLO 205, with UACC-257 and with OVCAR-3 was > 100 µM (inactive) throughout.

As for `O=C(Nc1cccc(Cl)c1)c1cc2cc(/N=N/c3ccc(Br)cc3)ccc2oc1=O`, the GI50 in the test with KM12 was 19.2 µM (inactive); with 786-0, 25.5 µM (inactive); in the test with RXF 393, 16.1 µM (inactive); in the test with KM-20L2, 45.1 µM (inactive); in the test on NCI-H460, 36 µM (inactive); in the test on SNB-75, 37 µM (inactive). In addition, the GI50 with LOX IMVI is 14.4 µM (inactive); in the test on UACC-62, 14.1 µM (inactive); in the test on SF-539, 56.2 µM (inactive); with SF-268 it was 14.6 µM (inactive); in the test with EKVX, 34.3 µM (inactive); in the test with HOP-62, > 100 µM (inactive). Moreover, the GI50 with HOP-92 is 37.8 µM (inactive); in the test on COLO 205, 41.4 µM (inactive); in the test on UACC-257 it was 33.3 µM (inactive); with OVCAR-3 it was 22.8 µM (inactive).

Consider `CCOC(=O)/C(=C/c1ccccc1Br)P(=O)(OCC)OCC`, for which the GI50 is 1.87 µM (inactive) in the test with KM12; 1.34 µM (inactive) in the test with 786-0; 1.17 µM (inactive) with RXF 393; 2.25 µM (inactive) in the test on KM-20L2; 2.87 µM (inactive) in the test with NCI-H460; 1.48 µM (inactive) in the test on SNB-75. The GI50 in the test with LOX IMVI is 1.39 µM (inactive); in the test on UACC-62, 1.24 µM (inactive); in the test with SF-539, 2.4 µM (inactive); in the test with CCRF-CEM it was 0.738 µM (active); in the test on HL-60, 0.226 µM (active); with SF-268, 2.9 µM (inactive). The GI50 in the test on EKVX is 2.58 µM (inactive); in the test with HOP-62, 3.72 µM (inactive); with HOP-92, 1.46 µM (inactive); in the test on OVCAR-3, 2.81 µM (inactive).

For `COc1nc(OC)nc(Sc2ccc(Sc3ccc(Sc4nc(OC)nc(OC)n4)cc3)cc2)n1`, the GI50 in the test with KM12, in the test with 786-0, with RXF 393, with KM-20L2, in the test with NCI-H460 and in the test with SNB-75 was > 100 µM (inactive) each time. For the same compound, the GI50 with LOX IMVI, in the test with UACC-62, with SF-539, in the test on CCRF-CEM, in the test with HL-60 and with SF-268 was > 100 µM (inactive) throughout. For the same compound, the GI50 in the test with EKVX, with HOP-92, with COLO 205, in the test on UACC-257 and in the test with OVCAR-3 was > 100 µM (inactive) throughout.

Take `CC(=O)O[C@@H]1CC[C@@]2(C)C(=O)C34C[C@@]5(C)C([C@@H](C)CCCC(C)C)CCC5(C)[C@](O)(O3)C(=O)[C@H]4C2C1(C)C` (some centres not stated): the GI50 in the test with KM12 is 11.3 µM (inactive); in the test on 786-0, 12.9 µM (inactive); in the test with KM-20L2, 17.4 µM (inactive); in the test with NCI-H460, 6.04 µM (inactive); in the test on SNB-75 it was 15.7 µM (inactive); with LOX IMVI, 15.6 µM (inactive). Also, the GI50 is 18.2 µM (inactive) in the test on UACC-62; 19.3 µM (inactive) with SF-539; 4.3 µM (inactive) in the test on CCRF-CEM; 10.2 µM (inactive) with HL-60; 15.8 µM (inactive) in the test on SF-268; 18.4 µM (inactive) in the test with EKVX. Also, the GI50 with HOP-62 is 17.7 µM (inactive); with HOP-92 it was 19.1 µM (inactive); in the test with COLO 205, 14.5 µM (inactive); with UACC-257, 17 µM (inactive); with OVCAR-3, 12.3 µM (inactive).
